pIC50: −log10 of the molar value. Non-standard residues stand in square brackets, D forms with d. Residues, ends and D or L forms follow the SMILES beside them. *: point of attachment. Hexenoyl(2E,4S-Me) = CC[C@H](C)/C=C/C(=O)*; Benzoyl(4-CF3) = O=C(c1ccc(C(F)(F)F)cc1)*; Leu(3R-OH) = CC(C)[C@@H](O)[C@H](N)C(=O)O; NH((S)CH(Me)CH2NMe2) = C[C@@H](CN(C)C)N*; Pro(4S-Me) = C[C@@H]1CN[C@H](C(=O)O)C1; Cyclopentanecarbonyl = O=C(C1CCCC1)*; Gly(octyl) = CCCCCCCC[C@H](N)C(=O)O; Oxazole4CO(2-Me) = Cc1nc(C(=O)*)co1; Thiophene2carbonyl = O=C(c1cccs1)*; X16 = COc1ccc2cc(C(=O)*)c(=O)oc2c1; Benzoyl(4-F) = O=C(c1ccc(F)cc1)*; hCha = N[C@@H](CCC1CCCCC1)C(=O)O; X19 = O=C(c1ccnc2cc(Cl)ccc12)*; X17 = C[C@@H](CN1CCOCC1)N*; Aib = CC(C)(N)C(=O)O; βAla = NCCC(=O)O
Legend:
[1] = test system: Trypanosoma brucei rhodesiense (STIB 900 strain); test: Alamar Blue assay against Trypanosoma brucei rhodesiense grown in axenic medium; type: cell-based; conditions: In vitro inhibition, read-out: T.b.rhod.
Procedure, shortened: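 T. b. rhodesiense STIB 900 cultured in axenic medium and exposed to samples in an Alamar Blue viability assay, run in triplicate. IC50 calculated from the readout; melarsoprol served as reference drug.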

[2] = test system: Trypanosoma cruzi trypomastigote forms (Tulahuen strain); test: Intracellular Trypanosoma cruzi assay in L6-cells, beta-galactosidase/CPRG readout; type: cell-based; conditions: In vitro inhibition, read-out: T.cruzi.
Procedure, shortened: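 L6 rat myoblasts infected with Tulahuen C2C4 LacZ T. cruzi; after incubation, CPRG/Nonidet substrate added and colour developed 2–6 h. Absorbance at 540 nm; IC50 calculated; triplicate tests.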

[3] = test system: Axenically grown Leishmania donovani amastigotes (strain MHOM/ET/67/L82); test: Axenic Leishmania donovani amastigote resazurin assay; type: cell-based; conditions: In vitro inhibition, read-out: L.don. ax
Procedure, shortened: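 Strain MHOM/ET/67/L82 amastigotes grown axenically and tested in triplicate by resazurin assay. Plates developed 2-4 hours, fluorescence read at 536 nm excitation/588 nm emission and expressed as percentage of negative control.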

[4] = test system: intracellular Leishmania donovani (L.don. InMac); test: Intracellular Leishmania donovani assay (L.don. InMac); type: cell-based; conditions: In vitro inhibition
Text: (§1) Tests were done in triplicate.

[5] = test system: Plasmodium falciparum; test: 3H-hypoxanthine incorporation assay against Plasmodium falciparum; type: cell-based; conditions: In vitro inhibition, read-out: P.falc NF5
Experimental: as §1
IC50 values were calculated by linear interpolation.

[6] = Cytotoxicity assay on L6-cells (Alamar Blue); conditions: rat, Cytotox L6, Cytotoxicity against rat myoblast cells (L6)

Row | SMILES | pIC50 [1] | pIC50 [2] | pIC50 [3] | pIC50 [4] | pIC50 [5] | IC50 at 70 h [6]
1 | CCCCCCCC[C@H](NC(=O)[C@@H]1C[C@H](C)CN1C(=O)/C=C/[C@@H](C)CC)C(=O)N[C@H](C(=O)NC(C)(C)C(=O)N[C@@H](CC(C)C)C(=O)N[C@@H](CC(C)C)C(=O)NC(C)(C)C(=O)NC(C)(C)C(=O)NCCC(=O)N[C@@H](C)CN(C)C)[C@H](O)C(C)C [Compound 5492, (2S)-N-[(1S,2R)-1-[(1-{[(1S)-1-{[(1S)-1-{[1-({1-[(2-{[(2S)-1-(dimethylamino)propan-2-yl]carbamoyl}ethyl)carbamoyl]-1-methylethyl}carbamoyl)-1-methylethyl]carbamoyl}-3-methylbutyl]carbamoyl}-3-methylbutyl]carbamoyl}-1-methylethyl)carbamoyl]-2-hydroxy-3-methylbutyl]-2-{[(2S,4S)-4-methyl-1-[(2E,4S)-4-methylhex-2-enoyl]pyrrolidin-2-yl]formamido}decanamide] ({Hexenoyl(2E,4S-Me)}-[Pro(4S-Me)][Gly(octyl)][Leu(3R-OH)][Aib]LL[Aib][Aib][βAla]-{NH((S)CH(Me)CH2NMe2)}) | 8.26 | 6.95 | 8.70 | 7.44 | 8.33 | 147 nM
2 | CCCCCCCC[C@H](NC(=O)C1CCCC1)C(=O)N[C@H](C(=O)NC(C)(C)C(=O)N[C@@H](CC(C)C)C(=O)N[C@@H](CC(C)C)C(=O)NC(C)(C)C(=O)NC(C)(C)C(=O)NCCC(=O)N[C@@H](C)CN(C)C)[C@@H](C)O [Compound 5641, (2S)-2-(cyclopentylformamido)-N-[(1S,2R)-1-[(1-{[(1S)-1-{[(1S)-1-{[1-({1-[(2-{[(2S)-1-(dimethylamino)propan-2-yl]carbamoyl}ethyl)carbamoyl]-1-methylethyl}carbamoyl)-1-methylethyl]carbamoyl}-3-methylbutyl]carbamoyl}-3-methylbutyl]carbamoyl}-1-methylethyl)carbamoyl]-2-hydroxypropyl]decanamide] (Cyclopentanecarbonyl-[Gly(octyl)]T[Aib]LL[Aib][Aib][βAla]-{NH((S)CH(Me)CH2NMe2)}) | 8.41 | 5.85 | 8.09 | 6.06 | 7.14 | 1670 nM
3 | CCCCCCCC[C@H](NC(=O)[C@@H]1CCCN1C(=O)c1cccs1)C(=O)N[C@@H](CC(C)C)C(=O)NC(C)(C)C(=O)N[C@@H](CC(C)C)C(=O)N[C@@H](CC(C)C)C(=O)NC(C)(C)C(=O)NC(C)(C)C(=O)NCCC(=O)N[C@@H](C)CN(C)C [Compound 5904, (2S)-N-[(1S)-1-[(1-{[(1S)-1-{[(1S)-1-{[1-({1-[(2-{[(2S)-1-(dimethylamino)propan-2-yl]carbamoyl}ethyl)carbamoyl]-1-methylethyl}carbamoyl)-1-methylethyl]carbamoyl}-3-methylbutyl]carbamoyl}-3-methylbutyl]carbamoyl}-1-methylethyl)carbamoyl]-3-methylbutyl]-2-{[(2S)-1-(thiophene-2-carbonyl)pyrrolidin-2-yl]formamido}decanamide] (Thiophene2carbonyl-P[Gly(octyl)]L[Aib]LL[Aib][Aib][βAla]-{NH((S)CH(Me)CH2NMe2)}) | 9.70 | 4.44 | 4.37 | 4.37 | 4.49 | 
4 | CCCCCCCC[C@H](NC(=O)[C@@H]1CCCN1C(=O)c1ccnc2cc(Cl)ccc12)C(=O)N[C@@H](CC(C)C)C(=O)NC(C)(C)C(=O)N[C@@H](CC(C)C)C(=O)N[C@@H](CC(C)C)C(=O)NC(C)(C)C(=O)NC(C)(C)C(=O)NCCC(=O)N[C@@H](C)CN(C)C [Compound 5768, (2S)-2-{[(2S)-1-(7-chloroquinoline-4-carbonyl)pyrrolidin-2-yl]formamido}-N-[(1S)-1-[(1-{[(1S)-1-{[(1S)-1-{[1-({1-[(2-{[(2S)-1-(dimethylamino)propan-2-yl]carbamoyl}ethyl)carbamoyl]-1-methylethyl}carbamoyl)-1-methylethyl]carbamoyl}-3-methylbutyl]carbamoyl}-3-methylbutyl]carbamoyl}-1-methylethyl)carbamoyl]-3-methylbutyl]decanamide] (X19-P[Gly(octyl)]L[Aib]LL[Aib][Aib][βAla]-{NH((S)CH(Me)CH2NMe2)}) | 8.06 | 6.43 | 7.47 | 6.59 | 7.61 | 
5 | CC(C)C[C@H](NC(=O)[C@H](CCC1CCCCC1)NC(=O)[C@@H]1CCCN1C(=O)c1ccc(F)cc1)C(=O)NC(C)(C)C(=O)N[C@@H](CC(C)C)C(=O)N[C@@H](CC(C)C)C(=O)NC(C)(C)C(=O)NC(C)(C)C(=O)NCCC(=O)N[C@@H](C)CN1CCOCC1 [Compound 6028, (2S)-2-[(2S)-2-{2-[(2S)-2-[(2S)-4-cyclohexyl-2-{[(2S)-1-(4-fluorobenzoyl)pyrrolidin-2-yl]formamido}butanamido]-4-methylpentanamido]-2-methylpropanamido}-4-methylpentanamido]-4-methyl-N-[1-methyl-1-({1-methyl-1-[(2-{[(2S)-1-(morpholin-4-yl)propan-2-yl]carbamoyl}ethyl)carbamoyl]ethyl}carbamoyl)ethyl]pentanamide] ({Benzoyl(4-F)}-P[hCha]L[Aib]LL[Aib][Aib][βAla]-X17) | 4.38 | 6.64 | 4.90 | 6.38 | 7.58 | 
6 | CCCCCCCC[C@H](NC(=O)[C@@H]1CCCN1C(=O)c1cc2ccc(OC)cc2oc1=O)C(=O)N[C@@H](CC(C)C)C(=O)NC(C)(C)C(=O)N[C@@H](CC(C)C)C(=O)N[C@@H](CC(C)C)C(=O)NC(C)(C)C(=O)NC(C)(C)C(=O)NCCC(=O)N[C@@H](C)CN(C)C [Compound 5769, (2S)-N-[(1S)-1-[(1-{[(1S)-1-{[(1S)-1-{[1-({1-[(2-{[(2S)-1-(dimethylamino)propan-2-yl]carbamoyl}ethyl)carbamoyl]-1-methylethyl}carbamoyl)-1-methylethyl]carbamoyl}-3-methylbutyl]carbamoyl}-3-methylbutyl]carbamoyl}-1-methylethyl)carbamoyl]-3-methylbutyl]-2-{[(2S)-1-(7-methoxy-2-oxo-2H-chromene-3-carbonyl)pyrrolidin-2-yl]formamido}decanamide] (X16-P[Gly(octyl)]L[Aib]LL[Aib][Aib][βAla]-{NH((S)CH(Me)CH2NMe2)}) | 8.55 | 6.78 | 8.09 | 6.67 | 8.28 | 
7 | CCCCCCCC[C@H](NC(=O)[C@@H]1CCCN1C(=O)c1ccc(C(F)(F)F)cc1)C(=O)N[C@@H](CC(C)C)C(=O)NC(C)(C)C(=O)N[C@@H](CC(C)C)C(=O)N[C@@H](CC(C)C)C(=O)NC(C)(C)C(=O)NC(C)(C)C(=O)NCCC(=O)N[C@@H](C)CN(C)C [Compound 5936, (2S)-N-[(1S)-1-[(1-{[(1S)-1-{[(1S)-1-{[1-({1-[(2-{[(2S)-1-(dimethylamino)propan-2-yl]carbamoyl}ethyl)carbamoyl]-1-methylethyl}carbamoyl)-1-methylethyl]carbamoyl}-3-methylbutyl]carbamoyl}-3-methylbutyl]carbamoyl}-1-methylethyl)carbamoyl]-3-methylbutyl]-2-{[(2S)-1-[4-(trifluoromethyl)benzoyl]pyrrolidin-2-yl]formamido}decanamide] ({Benzoyl(4-CF3)}-P[Gly(octyl)]L[Aib]LL[Aib][Aib][βAla]-{NH((S)CH(Me)CH2NMe2)}) | 9.15 | 7.28 | 4.93 | > 7.48 | 4.51 | 
8 | CCCCCCCC[C@H](NC(=O)[C@@H]1CCCN1C(=O)c1coc(C)n1)C(=O)N[C@@H](CC(C)C)C(=O)NC(C)(C)C(=O)N[C@@H](CC(C)C)C(=O)N[C@@H](CC(C)C)C(=O)NC(C)(C)C(=O)NC(C)(C)C(=O)NCCC(=O)N[C@@H](C)CN(C)C [Compound 5905, (2S)-N-[(1S)-1-[(1-{[(1S)-1-{[(1S)-1-{[1-({1-[(2-{[(2S)-1-(dimethylamino)propan-2-yl]carbamoyl}ethyl)carbamoyl]-1-methylethyl}carbamoyl)-1-methylethyl]carbamoyl}-3-methylbutyl]carbamoyl}-3-methylbutyl]carbamoyl}-1-methylethyl)carbamoyl]-3-methylbutyl]-2-{[(2S)-1-(2-methyl-1,3-oxazole-4-carbonyl)pyrrolidin-2-yl]formamido}decanamide] ({Oxazole4CO(2-Me)}-P[Gly(octyl)]L[Aib]LL[Aib][Aib][βAla]-{NH((S)CH(Me)CH2NMe2)}) | 9.70 | 4.37 | 4.50 | 4.37 | 4.58 | 
9 | Cc1nc(C(=O)N2CCC[C@H]2C(=O)N[C@@H](CCC2CCCCC2)C(=O)N[C@@H](CC(C)C)C(=O)NC(C)(C)C(=O)N[C@@H](CC(C)C)C(=O)N[C@@H](CC(C)C)C(=O)NC(C)(C)C(=O)NC(C)(C)C(=O)NCCC(=O)N[C@@H](C)CN2CCOCC2)co1 [Compound 6026] ({Oxazole4CO(2-Me)}-P[hCha]L[Aib]LL[Aib][Aib][βAla]-X17) | 4.38 | 6.37 | 4.35 | 7.29 | 7.42 | 

Source: patent EP3345917A1, “ANTIPROTOZOAL COMPOUNDS” (Bacoba AG, priority 2017, dated 2018)
